From PMC4384654 (ChemMedChem, 2014)
Several values for one entry are separate records, joined by “and”; a condition that tells them apart may be missing. Identical values can stand only once. Like-named read-outs stand apart in the source and are kept apart here.

Key:
[1] = biological target: T1, FAAH prepared from rat brain homogenates (Rattus norvegicus, UniProt P97612); assay: In vitro rat FAAH radiometric assay; type: biochemical; settings: for IC50: read-out: r-FAAH IC50; for IC50 / % inhibition of FAAH activity at 100 μM: rat brain homogenate; for Increase in potency vs 34a: relative to 34a
T1 sequence (P97612 1-579): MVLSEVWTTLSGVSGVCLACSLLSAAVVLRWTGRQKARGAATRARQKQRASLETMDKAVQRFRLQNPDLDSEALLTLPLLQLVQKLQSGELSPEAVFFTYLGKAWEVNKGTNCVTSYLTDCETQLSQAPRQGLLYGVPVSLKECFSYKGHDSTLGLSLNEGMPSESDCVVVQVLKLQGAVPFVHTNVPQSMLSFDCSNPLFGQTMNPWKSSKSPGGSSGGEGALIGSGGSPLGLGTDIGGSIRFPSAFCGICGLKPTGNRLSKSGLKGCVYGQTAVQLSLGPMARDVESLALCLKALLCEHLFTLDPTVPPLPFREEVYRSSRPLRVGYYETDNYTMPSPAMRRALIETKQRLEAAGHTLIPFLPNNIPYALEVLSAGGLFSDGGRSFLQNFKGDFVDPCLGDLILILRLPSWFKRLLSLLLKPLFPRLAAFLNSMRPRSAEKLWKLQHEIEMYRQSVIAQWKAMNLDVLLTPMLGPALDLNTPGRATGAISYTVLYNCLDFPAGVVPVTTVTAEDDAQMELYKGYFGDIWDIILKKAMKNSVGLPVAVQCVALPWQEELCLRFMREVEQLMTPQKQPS

human FAAH-1 = biological target: T2, human FAAH-1 (Homo sapiens, UniProt O00519); assay: In vitro human FAAH fluorescent assay; type: biochemical; settings: h-FAAH-1 IC50 relative to r-FAAH IC50
T2 sequence (O00519 1-579): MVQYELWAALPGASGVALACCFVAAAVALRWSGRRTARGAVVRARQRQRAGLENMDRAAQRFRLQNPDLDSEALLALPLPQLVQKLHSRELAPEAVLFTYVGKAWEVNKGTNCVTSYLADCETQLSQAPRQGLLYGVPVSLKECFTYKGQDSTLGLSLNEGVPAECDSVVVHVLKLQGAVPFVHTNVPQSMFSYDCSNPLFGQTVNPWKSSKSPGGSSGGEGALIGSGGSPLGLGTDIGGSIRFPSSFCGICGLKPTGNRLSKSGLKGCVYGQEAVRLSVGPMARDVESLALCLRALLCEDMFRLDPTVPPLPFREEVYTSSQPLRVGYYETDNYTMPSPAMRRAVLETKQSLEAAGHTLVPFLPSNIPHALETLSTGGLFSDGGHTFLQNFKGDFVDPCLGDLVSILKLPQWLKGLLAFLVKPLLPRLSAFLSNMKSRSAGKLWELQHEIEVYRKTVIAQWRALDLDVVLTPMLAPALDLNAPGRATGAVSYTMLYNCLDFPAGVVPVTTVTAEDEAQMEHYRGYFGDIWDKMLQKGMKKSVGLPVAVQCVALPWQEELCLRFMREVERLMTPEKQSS

| Structure (SMILES) | IC50 ([1]; mean ± SEM (n=3)) | other results |
| --- | --- | --- |
| O=C(NC1CCCCC1)OCc1cn(-c2ccccc2)nn1 [Compound 17, (1-phenyltriazol-4-yl)methyl N-cyclohexylcarbamate] | 381 nM | – |
| O=C(NC1CCCCC1)OCc1cn(Cc2ccc(F)cc2)nn1 [Compound 23c, [1-[(4-fluorophenyl)methyl]triazol-4-yl]methyl N-cyclohexylcarbamate] | 95.5 ± 22.2 nM | – |
| COc1ccc(Cn2cc(COC(=O)NC3CCCCC3)nn2)cc1 [Compound 26c, [1-[(4-methoxyphenyl)methyl]triazol-4-yl]methyl N-cyclohexylcarbamate] | 627 ± 173 nM | – |
| O=C(NC1CCCCC1)OCc1ncn(-c2ccccc2)n1 [Compound 43] | – | % inhibition of FAAH activity at 100 μM [1]: 70% @ 100 μM |
| O=C(NC1CCCCC1)OCCc1cn(-c2ccccc2)nn1 [Compound 32, 2-(1-phenyltriazol-4-yl)ethyl N-cyclohexylcarbamate] | 1280 ± 84 nM | Decrease in potency vs compound 17 ([1]; r-FAAH, relative to 17): ca. 3 fold |
| N#Cc1cccc(Cn2cc(COC(=O)NC3CCCCC3)nn2)c1 [Compound 22b, [1-[(3-cyanophenyl)methyl]triazol-4-yl]methyl N-cyclohexylcarbamate] | 21.5 ± 7.9 nM | – |
| O=C(NC1CCCCC1)OCc1cn(C(c2ccccc2)c2ccccc2)nn1 [Compound 20, (1-benzhydryltriazol-4-yl)methyl N-cyclohexylcarbamate] | – | % inhibition of FAAH activity at 100 μM [1]: 73% @ 100 μM |
| O=C(NC1CCCCC1)OCc1cn(Cc2cccc(F)c2)nn1 [Compound 23b, [1-[(3-fluorophenyl)methyl]triazol-4-yl]methyl N-cyclohexylcarbamate] | 12.1 ± 0.8 nM | – |
| O=C(NC1CCCCC1)OCc1cn(Cc2ccc(Cl)cc2)nn1 [Compound 24c, [1-[(4-chlorophenyl)methyl]triazol-4-yl]methyl N-cyclohexylcarbamate] | 215 ± 31 nM | – |
| COc1cccc(Cn2cc(COC(=O)NC3CCCCC3)nn2)c1F [Compound 30, [1-[(2-fluoro-3-methoxy-phenyl)methyl]triazol-4-yl]methyl N-cyclohexylcarbamate] | 44.6 ± 10.3 nM | – |
| O=C(NC1CCCCC1)OCc1cn(Cc2cc(F)cc(F)c2)nn1 [Compound 29, [1-[(3,5-difluorophenyl)methyl]triazol-4-yl]methyl N-cyclohexylcarbamate] | 10.4 ± 2.6 nM | – |
| COc1cccc(Cn2cc(CNC(=O)OCc3cn(Cc4ccccc4OC)nn3)nn2)c1 [Compound 37, [1-[(2-methoxyphenyl)methyl]triazol-4-yl]methyl N-[[1-[(3-methoxyphenyl)methyl]triazol-4-yl]methyl]carbamate] | 3.2 ± 1.2 nM | Loss of potency on h-FAAH-1 vs r-FAAH (human FAAH-1): 4 to 10 fold; Increase in potency vs 34a ([1]; r-FAAH): 48 fold |
| Cc1cccc(Cn2cc(COC(=O)NC3CCCCC3)nn2)c1 [Compound 25b, [1-(m-tolylmethyl)triazol-4-yl]methyl N-cyclohexylcarbamate] | 24.5 ± 6.2 nM | – |
| COc1ccc(Cn2cc(CNC(=O)OCc3cn(Cc4ccccc4OC)nn3)nn2)cc1 [Compound 38, [1-[(2-methoxyphenyl)methyl]triazol-4-yl]methyl N-[[1-[(4-methoxyphenyl)methyl]triazol-4-yl]methyl]carbamate] | 7.6 ± 0.6 nM | Loss of potency on h-FAAH-1 vs r-FAAH (human FAAH-1): 4 to 10 fold |
| Cc1ccccc1Cn1cc(COC(=O)NC2CCCCC2)nn1 [Compound 25a, [1-(o-tolylmethyl)triazol-4-yl]methyl N-cyclohexylcarbamate] | 21.5 ± 1.2 nM | – |
| COc1cccc(Cn2cc(COC(=O)NC3CCCCC3)nn2)c1 [Compound 26b, [1-[(3-methoxyphenyl)methyl]triazol-4-yl]methyl N-cyclohexylcarbamate] | 11.8 ± 3.7 nM | – |

| Structure (SMILES) | IC50 ([1]; mean ± SEM (n=3)) | other results |
| --- | --- | --- |
| COc1ccccc1Cn1cc(COC(=O)NC2CCCCC2)nn1 [Compound 26a, [1-[(2-methoxyphenyl)methyl]triazol-4-yl]methyl N-cyclohexylcarbamate] | 1.4 ± 0.2 nM | Loss of potency on h-FAAH-1 vs r-FAAH (human FAAH-1): 240 fold |
| N#Cc1ccc(Cn2cc(COC(=O)NC3CCCCC3)nn2)cc1 [Compound 22c, [1-[(4-cyanophenyl)methyl]triazol-4-yl]methyl N-cyclohexylcarbamate] | 2280 ± 585 nM | – |
| Cc1ccc(Cn2cc(COC(=O)NC3CCCCC3)nn2)cc1 [Compound 25c, [1-(p-tolylmethyl)triazol-4-yl]methyl N-cyclohexylcarbamate] | 500 ± 44 nM | – |
| O=C(NC1CCCCC1)OCc1cn(Cc2ccc3ccccc3c2)nn1 [Compound 21, [1-(2-naphthylmethyl)triazol-4-yl]methyl N-cyclohexylcarbamate] | 2000 ± 636 nM | IC50 [1]: 2000 nM |
| O=C(NC1CCCCC1)OCCc1cn(Cc2ccccc2)nn1 [Compound 33, 2-(1-benzyltriazol-4-yl)ethyl N-cyclohexylcarbamate] | 2540 ± 106 nM | – |
| COc1cccc(Cn2cc(COC(=O)NCc3cn(Cc4ccccc4OC)nn3)nn2)c1 [Compound 39, [1-[(3-methoxyphenyl)methyl]triazol-4-yl]methyl N-[[1-[(2-methoxyphenyl)methyl]triazol-4-yl]methyl]carbamate] | 9.8 ± 0.4 nM | Loss of potency on h-FAAH-1 vs r-FAAH (human FAAH-1): 4 to 10 fold; Increase in potency vs 34a ([1]; r-FAAH): ca. 15 fold |
| O=C(NC1CCCCC1)OCc1cn(CCc2ccccc2)nn1 [Compound 19, (1-phenethyltriazol-4-yl)methyl N-cyclohexylcarbamate] | 833 ± 129 nM | – |
| O=C(NC1CCCCC1)OCc1cn(Cc2cccc(Cl)c2)nn1 [Compound 24b, [1-[(3-chlorophenyl)methyl]triazol-4-yl]methyl N-cyclohexylcarbamate] | 13.2 ± 2.8 nM | – |
| O=C(NC1CCCCC1)OCc1cn(Cc2ccccc2Cl)nn1 [Compound 24a, [1-[(2-chlorophenyl)methyl]triazol-4-yl]methyl N-cyclohexylcarbamate] | 6.2 ± 1.3 nM | Loss of potency on h-FAAH-1 vs r-FAAH (human FAAH-1): 172 fold |
| COc1ccccc1Cn1cc(CNC(=O)OCc2cn(Cc3ccccc3OC)nn2)nn1 [Compound 34a, [1-[(2-methoxyphenyl)methyl]triazol-4-yl]methyl N-[[1-[(2-methoxyphenyl)methyl]triazol-4-yl]methyl]carbamate] | 154 ± 14 nM | – |
| O=C(NC1CCCCC1)OCc1cn(Cc2c(F)cccc2F)nn1 [Compound 28, [1-[(2,6-difluorophenyl)methyl]triazol-4-yl]methyl N-cyclohexylcarbamate] | 11.9 ± 1 nM | – |
| O=C(NC1CCCCC1)OCc1cn(Cc2ccccc2F)nn1 [Compound 23a, [1-[(2-fluorophenyl)methyl]triazol-4-yl]methyl N-cyclohexylcarbamate] | 9.9 ± 1.9 nM | Loss of potency on h-FAAH-1 vs r-FAAH (human FAAH-1): 62 fold |
| O=C(NC1CCCCC1)OCc1cn(Cc2ccccc2)nn1 [Compound 18, (1-benzyltriazol-4-yl)methyl N-cyclohexylcarbamate] | 26 nM and 26.2 nM | Less potent than 1a (URB524) ([1]; r-FAAH, relative to 1a): 4.6 fold; Increase in potency vs compound 17 ([1]; r-FAAH, relative to 17): ca. 15 fold |
| O=C(NC1CCCCC1)OCc1cccc(-c2ccccc2)c1 [Compound 4, (3-phenylphenyl)methyl N-cyclohexylcarbamate] | – | inhibition at 100 µM ([1]; read-out: % inhibition of FAAH activity at 100 μM): 65% |
| N#Cc1ccccc1Cn1cc(COC(=O)NC2CCCCC2)nn1 [Compound 22a, [1-[(2-cyanophenyl)methyl]triazol-4-yl]methyl N-cyclohexylcarbamate] | 19.5 ± 4.3 nM | – |
| O=C(NC1CCCCC1)OCc1ncn(Cc2ccccc2)n1 [Compound 46] | 51500 ± 1120 nM | – |
